PubChem BioAssay (NCI)
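Where inhibition never reached the appropriate level, the endpoint shown equals the highest concentration tested. Otherwise, values were interpolated linearly from a five-concentration, 48-hour dose response in 96-well plates. The concentration for full growth arrest is given as TGI.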

How the values were obtained:
Test in all cases: NCI anticancer screen, dose series, 48 h
786-0 renal = system: 786-0 renal
A498 renal = system: A498 renal
A549 NSCLC = system: A549 NSCLC
ACHN renal = system: ACHN renal
CAKI-1 renal = system: CAKI-1 renal
CCRF-CEM leukemia = system: CCRF-CEM leukemia
COLO 205 colon = system: COLO 205 colon
DLD-1 colon = system: DLD-1 colon
DMS 114 small cell lung = system: DMS 114 small cell lung
DMS 273 small cell lung = system: DMS 273 small cell lung
EKVX NSCLC = system: EKVX NSCLC
HCC-2998 colon = system: HCC-2998 colon
HCT-116 colon = system: HCT-116 colon
HCT-15 colon = system: HCT-15 colon
HL-60(TB) leukemia = system: HL-60(TB) leukemia
HOP-62 NSCLC = system: HOP-62 NSCLC
HT29 colon = system: HT29 colon
IGROV1 ovarian = system: IGROV1 ovarian
K-562 leukemia = system: K-562 leukemia
KM12 colon = system: KM12 colon
KM20L2 colon = system: KM20L2 colon
LOX IMVI melanoma = system: LOX IMVI melanoma
LXFL 529 NSCLC = system: LXFL 529 NSCLC
M14 melanoma = system: M14 melanoma
M19-MEL melanoma = system: M19-MEL melanoma
MALME-3M melanoma = system: MALME-3M melanoma
MOLT-4 leukemia = system: MOLT-4 leukemia
NCI-H226 lung = system: NCI-H226 lung
NCI-H23 lung = system: NCI-H23 lung
NCI-H460 lung = system: NCI-H460 lung
NCI-H522 lung = system: NCI-H522 lung
OVCAR-3 ovarian = system: OVCAR-3 ovarian
OVCAR-4 ovarian = system: OVCAR-4 ovarian
OVCAR-5 ovarian = system: OVCAR-5 ovarian
OVCAR-8 ovarian = system: OVCAR-8 ovarian
RPMI-8226 leukemia = system: RPMI-8226 leukemia
SF-268 CNS = system: SF-268 CNS
SF-295 CNS = system: SF-295 CNS
SF-539 CNS = system: SF-539 CNS
SK-MEL-2 melanoma = system: SK-MEL-2 melanoma
SK-MEL-28 melanoma = system: SK-MEL-28 melanoma
SK-MEL-5 melanoma = system: SK-MEL-5 melanoma
SK-OV-3 ovarian = system: SK-OV-3 ovarian
SN12C renal = system: SN12C renal
SNB-19 CNS = system: SNB-19 CNS
SNB-75 CNS = system: SNB-75 CNS
SW-620 colon = system: SW-620 colon
TK-10 renal = system: TK-10 renal
U251 CNS = system: U251 CNS
UACC-257 melanoma = system: UACC-257 melanoma
UACC-62 melanoma = system: UACC-62 melanoma
UO-31 renal = system: UO-31 renal
XF 498 CNS = system: XF 498 CNS
HOP-18 NSCLC = system: HOP-18 NSCLC
HOP-92 NSCLC = system: HOP-92 NSCLC
RXF 393 renal = system: RXF 393 renal
SR leukemia = system: SR leukemia
SNB-78 CNS = system: SNB-78 CNS

`COc1ccccc1N=NC(C(=O)c1ccccc1)C(=O)c1ccccc1` showed a TGI (786-0 renal) of over 100 µM, a TGI (A498 renal) of over 100 µM and a TGI (A549 NSCLC) of 78.3 µM. It also gave a TGI (ACHN renal) of 83.6 µM, a TGI (CAKI-1 renal) of 77.3 µM and a TGI (CCRF-CEM leukemia) of 60 µM. It also gave a TGI (COLO 205 colon) of over 100 µM, a TGI (DLD-1 colon) of 54.9 µM and a TGI (DMS 114 small cell lung) of 40.5 µM. The TGI (DMS 273 small cell lung) was 57.9 µM, the TGI (EKVX NSCLC) was 67.8 µM and the TGI (HCC-2998 colon) was 70.4 µM. The TGI (HCT-116 colon) was 28.6 µM, the TGI (HCT-15 colon) was 47.6 µM and the TGI (HL-60(TB) leukemia) was 33.7 µM. It also gave a TGI (HOP-62 NSCLC) of 52.1 µM, a TGI (HT29 colon) of 82.3 µM and a TGI (IGROV1 ovarian) of over 100 µM. It also gave a TGI (K-562 leukemia) of over 100 µM, a TGI (KM12 colon) of over 100 µM and a TGI (KM20L2 colon) of 58.2 µM. The TGI (LOX IMVI melanoma) was 51.1 µM, the TGI (LXFL 529 NSCLC) was over 100 µM and the TGI (M14 melanoma) was 31.6 µM. The TGI (M19-MEL melanoma) was 41.3 µM, the TGI (MALME-3M melanoma) was 88.9 µM and the TGI (MOLT-4 leukemia) was 60.4 µM. The TGI (NCI-H226 lung) was 35.9 µM, the TGI (NCI-H23 lung) was 68.1 µM and the TGI (NCI-H460 lung) was 82.2 µM. For the same molecule, the TGI (NCI-H522 lung) was 47 µM, the TGI (OVCAR-3 ovarian) was over 100 µM and the TGI (OVCAR-4 ovarian) was 74.2 µM. It also gave a TGI (OVCAR-5 ovarian) of 71.5 µM, a TGI (OVCAR-8 ovarian) of over 100 µM and a TGI (RPMI-8226 leukemia) of 58.7 µM. The TGI (SF-268 CNS) was over 100 µM, the TGI (SF-295 CNS) was 87.6 µM and the TGI (SF-539 CNS) was over 100 µM. It also gave a TGI (SK-MEL-2 melanoma) of 53.4 µM, a TGI (SK-MEL-28 melanoma) of over 100 µM and a TGI (SK-MEL-5 melanoma) of 54.5 µM. For the same molecule, the TGI (SK-OV-3 ovarian) was 89.4 µM, the TGI (SN12C renal) was 53.1 µM and the TGI (SNB-19 CNS) was 70.1 µM. It also gave a TGI (SNB-75 CNS) of 82.3 µM, a TGI (SW-620 colon) of over 100 µM and a TGI (TK-10 renal) of over 100 µM. It also gave a TGI (U251 CNS) of over 100 µM, a TGI (UACC-257 melanoma) of 89.2 µM and a TGI (UACC-62 melanoma) of 52.3 µM. For the same molecule, the TGI (UO-31 renal) was 37.3 µM and the TGI (XF 498 CNS) was 53.5 µM.

In the case of `CCC1(O)C(=O)OCc2c1cc1n(c2=O)Cc2cc3cc(OC)c(OC)cc3nc2-1` (centres undefined), the TGI (786-0 renal) is reported as 54.2 µM, the TGI (A498 renal) is reported as over 100 µM and the TGI (A549 NSCLC) is reported as over 100 µM. For the same molecule, the TGI (ACHN renal) was 37.3 µM, the TGI (CCRF-CEM leukemia) was over 100 µM and the TGI (COLO 205 colon) was over 100 µM. For the same molecule, the TGI (DMS 114 small cell lung) was over 100 µM, the TGI (EKVX NSCLC) was over 100 µM and the TGI (HCC-2998 colon) was over 100 µM. The TGI (HCT-116 colon) was over 100 µM, the TGI (HL-60(TB) leukemia) was over 100 µM and the TGI (HOP-18 NSCLC) was over 100 µM. The TGI (HOP-62 NSCLC) was 8.38 µM, the TGI (HOP-92 NSCLC) was over 100 µM and the TGI (HT29 colon) was over 100 µM. It also gave a TGI (IGROV1 ovarian) of 67.4 µM, a TGI (K-562 leukemia) of over 100 µM and a TGI (KM12 colon) of over 100 µM. The TGI (KM20L2 colon) was over 100 µM, the TGI (LOX IMVI melanoma) was over 100 µM and the TGI (LXFL 529 NSCLC) was over 100 µM. It also gave a TGI (M14 melanoma) of over 100 µM, a TGI (MALME-3M melanoma) of over 100 µM and a TGI (MOLT-4 leukemia) of over 100 µM. For the same molecule, the TGI (NCI-H226 lung) was 88.6 µM, the TGI (NCI-H23 lung) was over 100 µM and the TGI (NCI-H460 lung) was 28.5 µM. The TGI (NCI-H522 lung) was over 100 µM, the TGI (OVCAR-3 ovarian) was over 100 µM and the TGI (OVCAR-4 ovarian) was over 100 µM. The TGI (OVCAR-5 ovarian) was over 100 µM, the TGI (OVCAR-8 ovarian) was over 100 µM and the TGI (RPMI-8226 leukemia) was over 100 µM. The TGI (RXF 393 renal) was 71.8 µM, the TGI (SF-268 CNS) was over 100 µM and the TGI (SF-295 CNS) was over 100 µM. It also gave a TGI (SF-539 CNS) of 35.2 µM, a TGI (SK-MEL-28 melanoma) of over 100 µM and a TGI (SK-MEL-5 melanoma) of over 100 µM. It also gave a TGI (SK-OV-3 ovarian) of 89 µM, a TGI (SN12C renal) of 87.4 µM and a TGI (SNB-19 CNS) of 85.2 µM. It also gave a TGI (SNB-75 CNS) of 41 µM, a TGI (SR leukemia) of 7.68 µM and a TGI (TK-10 renal) of over 100 µM. It also gave a TGI (U251 CNS) of 35 µM, a TGI (UACC-257 melanoma) of over 100 µM and a TGI (UO-31 renal) of over 100 µM. For the same molecule, the TGI (XF 498 CNS) was over 100 µM.

`CCOC(=O)c1c(NNc2ccccc2)nc2ccccc2c1-c1ccccc1` gave a TGI (786-0 renal) of over 100 µM, a TGI (A498 renal) of over 100 µM and a TGI (A549 NSCLC) of 95.7 µM. The TGI (ACHN renal) was over 100 µM, the TGI (CAKI-1 renal) was over 100 µM and the TGI (CCRF-CEM leukemia) was 58.3 µM. It also gave a TGI (COLO 205 colon) of over 100 µM, a TGI (DLD-1 colon) of over 100 µM and a TGI (DMS 114 small cell lung) of 32.9 µM. It also gave a TGI (DMS 273 small cell lung) of over 100 µM, a TGI (EKVX NSCLC) of over 100 µM and a TGI (HCC-2998 colon) of over 100 µM. The TGI (HCT-116 colon) was 47.2 µM, the TGI (HCT-15 colon) was over 100 µM and the TGI (HL-60(TB) leukemia) was 44.3 µM. It also gave a TGI (HOP-18 NSCLC) of 77.3 µM, a TGI (HOP-62 NSCLC) of 59.3 µM and a TGI (HOP-92 NSCLC) of over 100 µM. The TGI (HT29 colon) was over 100 µM, the TGI (IGROV1 ovarian) was over 100 µM and the TGI (K-562 leukemia) was 77.9 µM. The TGI (KM12 colon) was over 100 µM, the TGI (KM20L2 colon) was over 100 µM and the TGI (LOX IMVI melanoma) was 40.1 µM. It also gave a TGI (LXFL 529 NSCLC) of over 100 µM, a TGI (M14 melanoma) of 80.8 µM and a TGI (M19-MEL melanoma) of 52.5 µM. It also gave a TGI (MALME-3M melanoma) of 64.3 µM, a TGI (MOLT-4 leukemia) of 42.9 µM and a TGI (NCI-H226 lung) of 92 µM. For the same molecule, the TGI (NCI-H23 lung) was 50.9 µM, the TGI (NCI-H460 lung) was 67.3 µM and the TGI (NCI-H522 lung) was 56.8 µM. It also gave a TGI (OVCAR-3 ovarian) of 67 µM, a TGI (OVCAR-4 ovarian) of over 100 µM and a TGI (OVCAR-5 ovarian) of over 100 µM. For the same molecule, the TGI (OVCAR-8 ovarian) was 82.2 µM, the TGI (RPMI-8226 leukemia) was 47.3 µM and the TGI (RXF 393 renal) was 86.3 µM. For the same molecule, the TGI (SF-268 CNS) was 91.9 µM, the TGI (SF-295 CNS) was over 100 µM and the TGI (SF-539 CNS) was 74.9 µM. It also gave a TGI (SK-MEL-2 melanoma) of 32.1 µM, a TGI (SK-MEL-28 melanoma) of over 100 µM and a TGI (SK-MEL-5 melanoma) of 35.2 µM. For the same molecule, the TGI (SK-OV-3 ovarian) was over 100 µM, the TGI (SN12C renal) was 92.3 µM and the TGI (SNB-19 CNS) was over 100 µM. For the same molecule, the TGI (SNB-75 CNS) was 93.2 µM, the TGI (SNB-78 CNS) was 88.6 µM and the TGI (SR leukemia) was 56.4 µM. For the same molecule, the TGI (SW-620 colon) was over 100 µM, the TGI (TK-10 renal) was over 100 µM and the TGI (U251 CNS) was over 100 µM. The TGI (UACC-257 melanoma) was over 100 µM, the TGI (UACC-62 melanoma) was 32 µM and the TGI (UO-31 renal) was 66.3 µM.
